Read-outs that look alike come from different tables or passages of the source.
Columns and labels:
[1] = target: SULT1A3 spin-labeled at Cys 234 (Homo sapiens, UniProt P0DMM9, K234C); assay: Initial-rate parameters, spin-labeled SULT1A3 mutant 234
Experimental: Covalent Tagging of SULT1A3 Cys Constructs. Labeling of the SULT1A3 Cys constructs was performed as described previously (17,18,21). Briefly, 3-maleimido-PROXYL (spin label) or N-cyclohexylmaleimide (diamagnetic control) was added to an enzyme containing solution at 20-fold excess over reactive Cys. Unreacted Cys was monitored using DNTB (17,18,21); reactions were considered complete when >98% of the Cys was labeled. Reaction conditions: SULT1A3 (50 μM, monomer), 3-maleimido-PROXYL or N-cyclohexylmaleimide (1.0 mM), PAP (0.50 mM), KPO4 (50 mM), pH 7.5, 4±2° C. To prepare samples for NMR, reaction mixtures were dialyzed three times against 40 volumes of PAP (0.50 mM), KPO4 (50 mM), pD 7.4, D2O (>95%), 4±2° C.
Initial-Rate Studies. Initial-rate parameters for the labeled or mutant SULT1A3 constructs were determined using a previously described 1-HP assay (25). […] Reactions were monitored via fluorescence change associated with the conversion of 1-HP to 1-HP-S (λex=325 nm, λem=370 nm). Keq for the 1-HP sulfonation reaction is −250. Given the reaction conditions outlined above, ≥99% of 1-HP is converted to 1-HP-S, and ˜0.4% of PAPS is converted to PAP at equilibrium. […] Reaction progress curves were analyzed to obtain initial-rate parameters as described previously (26,27).

[2] = target: SULT1A3 (Homo sapiens, UniProt P0DMM9); assay: SULT1A3 inhibition studies, 1-HP initial-rate fluorescence assay; type: biochemical; parameters: Wild-type and mutant SULT1A3 coding regions were inserted into a pGEX-6P expression vector; N-His/GST/MBP triple-tag (N, cleaved yes); made in house; host or cells: E. coli BL21(DE3); inhibition: dose or concentration left out as unconfirmed; details: for inhibition: read-out: SULT1A3 Enzyme Inhibition at Saturation/%
SULT1A3, sequence (P0DMM9 whole entry): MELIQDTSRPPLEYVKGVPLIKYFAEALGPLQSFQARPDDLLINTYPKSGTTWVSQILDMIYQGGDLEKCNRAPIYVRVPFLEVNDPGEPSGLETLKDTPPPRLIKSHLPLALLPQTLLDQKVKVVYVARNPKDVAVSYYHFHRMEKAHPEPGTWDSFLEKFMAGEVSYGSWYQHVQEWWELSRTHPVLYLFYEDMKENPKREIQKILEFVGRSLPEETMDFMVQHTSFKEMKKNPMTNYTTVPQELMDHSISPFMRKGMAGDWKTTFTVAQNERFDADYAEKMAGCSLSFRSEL
Experimental: The initial rates of SULT catalyzed 1-HP sulfonation are plotted as a function of inhibitor concentration, and are normalized relative to [inhibitor]=0. Enzyme activity was monitored by the sulfonation dependent change in 1-HP fluorescence (λex=325 nm, λem=370 nm). Less than 5% of the concentration-limiting substrate converted at the reaction endpoint was consumed during initial-rate measurements. Each point is the average of three independent determinations. Conditions: SULT (20 nM, active sites), PAPS (0.50 mM, 17×Km), 1-HP (5.0 μM, 61×Km), KPO4 (50 mM), pH 7.5, 25±2° C.
(§1) Initial-Rate Studies. Initial-rate parameters for the labeled or mutant SULT1A3 constructs were determined using a previously described 1-HP assay (25). Briefly, reactions were initiated by addition of PAPS (0.50 mM, 17×Km) to a solution containing enzyme (20 nM, active sites), 1-HP (2.0 μM, ˜24×Km), and KPO4 (50 mM), pH 7.5, 25±2° C. Reactions were monitored via fluorescence change associated with the conversion of 1-HP to 1-HP-S (λex=325 nm, λem=370 nm). Keq for the 1-HP sulfonation reaction is −250. Given the reaction conditions outlined above, ≥99% of 1-HP is converted to 1-HP-S, and ˜0.4% of PAPS is converted to PAP at equilibrium. […] Reaction progress curves were analyzed to obtain initial-rate parameters as described previously (26,27).
(§2) Inhibition studies. Inhibition parameters were determined under conditions identical to those described above (see, Initial-Rate Studies) except that [1-HP] was increased to 5.0 μM (˜61×Km) and inhibitor concentration was varied between 0.20-20×Ki. Ki was obtained using a least-squares fit to the following partial inhibition equation (25,28): v=kcat·(Ki+(1/kcat inh)·[I])/(Ki+[I]), where kcat inh is enzyme turnover at saturating substrates and allosteric inhibitor.
as §1, with “(47).” for “(25).”, “˜250.” for “−250.”, “(48,49).” for “(26,27).”
as §2, with “(47,50): V/Vax=(Ki+α·[I])/(Ki+[I]),” for “(25,28): v=kcat·(Ki+(1/kcat inh)·[I])/(Ki+[I]),”, “α” for “kcat inh”, “is percentage of” for “is”, “turnover remaining” for “turnover”

[3] = target: Dog (1D1) (Canis lupus familiaris, UniProt A0A8I3RXJ1); assay: Inhibition of SULT1A3 homologues in different species: Dog; type: biochemical
Dog (1D1), sequence (A0A8I3RXJ1 entry or part of it): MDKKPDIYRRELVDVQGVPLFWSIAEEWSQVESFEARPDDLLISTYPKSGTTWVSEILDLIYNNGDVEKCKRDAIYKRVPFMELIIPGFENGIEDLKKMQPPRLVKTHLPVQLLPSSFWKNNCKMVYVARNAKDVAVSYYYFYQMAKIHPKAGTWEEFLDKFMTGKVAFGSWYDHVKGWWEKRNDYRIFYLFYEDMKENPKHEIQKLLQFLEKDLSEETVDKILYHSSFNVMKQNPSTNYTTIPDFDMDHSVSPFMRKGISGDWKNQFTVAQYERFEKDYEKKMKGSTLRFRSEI
Experimental: (§3) Compounds 12, 23 and 25 were also tested for Inhibition of SULT1A3 in different species. Inhibition of SULT1A3 Homologues in Different Species. SULT1A3 is only expressed in humans and higher primates. SULT1D1 is the isoform expressed in dogs and rodents that sulfonates neurotransmitters and is most similar to SULT1A3. Three synthesized allosteres (12, 23, and 25) were tested against both 1A3 and 1D1 from different species in order to explore testing in animal models. […] Mice have been engineered such that their SULT1A1/2 enzymes have been knocked out and replaced with the human versions of those isoforms.

[4] = target: T1, Rat (1D1) (Rattus norvegicus, UniProt G3V9R3); assay: Inhibition of SULT1A3 homologues in different species: Rat; type: biochemical
T1 sequence (G3V9R3 1-295): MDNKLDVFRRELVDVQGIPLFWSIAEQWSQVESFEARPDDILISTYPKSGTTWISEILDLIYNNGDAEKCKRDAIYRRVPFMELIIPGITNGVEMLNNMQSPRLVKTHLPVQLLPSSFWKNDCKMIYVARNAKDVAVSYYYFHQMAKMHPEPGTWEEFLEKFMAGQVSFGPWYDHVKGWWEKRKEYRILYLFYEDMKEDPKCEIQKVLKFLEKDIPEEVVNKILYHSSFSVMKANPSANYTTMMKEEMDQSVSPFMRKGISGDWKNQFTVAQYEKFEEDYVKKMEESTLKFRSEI
Experimental: Compounds 12, 23 and 25 were also tested for Inhibition of SULT1A3 in different species.
as §3, with “Inhibition” for “Compounds 12, 23 and 25 were also tested for Inhibition of SULT1A3 in different species. Inhibition”

[5] = ND = inhibition was not detected at 30 μM compound, parentheses one standard error, read-out: SULT1A3 Ki/μM

SULT1A3 spin-labeled at Cys 234, sequence (P0DMM9 whole entry K234C): as the sequence (P0DMM9 whole entry) above, with K234C counted along it

Ki [1] | Ki ([2]; FIG. 1, read-out: Ki of CMP8 for SULT1A3) | Ki [2, 5] | Ki ([2]; WT enzyme, parentheses one standard deviation, read-out: Ki CMP8) | alleviation of inhibition by epigallochatechin gallate or mefenamic acid ([2]; competition against near-total inhibitors of the catechin and NSAID sites) | inhibition ([2]; parentheses one standard error) | SULT1A3 turnover at saturation relative to absence of inhibitor ([2]; partial inhibitor, at saturation) | kcat (+CMP8)/kcat (−CMP8) ([2]; saturating CMP8) | Dog (1D1) % inh [3] | Ki ([3]; standard error in neighbouring cell) | affinity for SULT1A3 (in words) [2] | Ki ([2]; standard error in neighbouring cell, read-out: Human (1A3) Ki) | inhibition at saturation ([2]; text b218) | Rat (1D1) % inh [4] | Ki ([4]; parentheses one standard error) | Structure (SMILES)
31 nM | 0.034 µM | 0.034 µM | 0.034 µM | did not alleviate inhibition | 54% | 46% | 0.46±0.08 |  |  |  |  |  |  |  | CC(C)Cc1ccc2cc(CO)ccc2n1 [Compound 8, (2-Isobutylquinolin-6-yl)methanol]
 |  | 0.069 µM |  |  | 83% |  |  | 83 (6) % | 77 nM | low micromolar affinity | 0.05 µM | 83% | 33 (4) % | 2500 nM | CC(C)Cc1ccc2cc(CCC(N)=O)ccc2n1 [Compound 12]
